# Measured values from patent US20020002277A1, “Inhibitors of platelet activation and recruitment” (priority 1998, published 2002).
# Experiments:
# platelets = test: Ex vivo additive inhibition of platelet aggregation in platelet rich plasma from patients; assay type: cell-based, human; settings: PRP from patients receiving the drug (clopidogrel, ticlopidine, abciximab groups also received aspirin)
# Procedure: Each group consisted of three to six patients. […] SoICD39 (10 μg/ml or 100 μg/ml) was then added and the additional inhibition of platelet activation (over baseline, in response to the platelet agonists) was measured in each of the five groups.
# [1] = Murine model of stroke (middle cerebral artery occlusion); assay type: in vivo, C57BL/6J mice
# Procedure: Anesthetized mice were maintained at 37±2° C. during and for 90 min following surgery. A midline neck incision was made and the right carotid artery exposed. Middle cerebral artery occlusion was accomplished by advancing a 13-mm heat-blunt tipped 6-0 nylon suture via an arteriotomy in the external carotid stump. The external carotid artery was cauterized to secure hemostasis, and arterial flow re-established. […] Surgical staples were used for wound closure.
# murine platelets = test: Ex vivo aggregation of murine platelets after treatment; assay type: in vivo, C57BL/6J mice; settings: PRP 1 hour after solCD39 4 mg/kg or aspirin 5 mg/kg
# Procedure: C57BL/6J mice (6-8 wk) were obtained from Jackson Laboratories (Bar Harbor, Me.). […] 80 μL of 3.8% trisodium citrate was added to each mL of blood. […] The PRP contained 400-700×10^3 platelets per μL. All experiments were completed within 2 hours of blood collection. PRP (200 μL) was preincubated, for 3 min. at 37° C., with 100 μL Tris-buffered saline buffer ([…], 5 mM glucose, pH 7.4) in an aggregometer cuvette (Lumiaggregometer; Chrono-Log, Havertown, Pa.), and the platelet agonists ADP, collagen, or sodium arachidonate were added at the final concentrations indicated.
# [2] = Phosphate release assay for ATPase activity; assay type: biochemical; settings: for CPM × 10^3 (net counts), ATPase activity in CM: 5 days (Table 3); for Activity (pmol ATP/min/μg) × 10^3: specific activity based on ELISA concentration, COS-1 1x supernatant, 10 cm plates, 5 days
# Procedure: This example describes an ATPase assay that may be used to track enzyme activity. Samples (approximately 100 μl of either concentrated CM or purified polypeptide) are combined with 20 μl of 10X assay buffer (200 mM HEPES, 1.2 M NaCl, 50 mM KCl, 15 mM CaCl2, 15 mM MgCl2 and 3 mM ATP) and sterile water is added to a final volume of 200 μl. Radiolabeled ATP (0.8 μCi γ [^32P] ATP; Amersham, Arlington Heights, Ill.) is added and the mixture incubated for 20 minutes at 37° C. Stop mix (0.5 ml of 20% activated charcoal/1 M HCl) is added and the reaction is placed on ice for 10 minutes. After centrifugation (14K rpm for 10 minutes), the supernatant is assayed for free ^32P using a scintillation counter. Data are expressed as raw counts or net counts, or as picomoles of ATP degraded per minute.
# The transfections were repeated and the CM (10, 20 and 30 μL, unconcentrated) was assayed essentially as described in Example 7. […] ATPase levels in CM from COS-1 cells transfected with pIL2LFlagSolCD39 increased with time in culture over at least 4 days post-transfection.
# To determine whether activity was affected by removal of the N-terminal FLAG® tag, COS-1 cells were transfected with pIL2LFlagSolCD39 and pIL2LSolCD39 and supernatants (sups) were harvested after 5 days. Samples of 10, 20 and 30 μL of 1x sups were assayed for ATPase activity as described in Example 7.
# The expression of Trim1 and Trim2 constructs was analyzed in COS-1 cells cultured in 10 cm plates. After 5 days of incubation, 1x supernatants were examined via ELISA (using anti-CD39) and the phosphate-release assay described in Example 7. […] Expression levels, however, appeared to be reduced 3-4 fold.
# [3] = Enzymatic (ATPase and ADPase) activity of site-directed CD39 mutants; assay type: biochemical; settings: alanine replacement mutant
# Procedure: Mutants were assayed for enzymatic (ATPase and ADPase) and platelet inhibitory (dose-dependent inhibition of platelet aggregation) activities. For one series of mutants, residues within the conserved apyrase regions were replaced with alanine.
Molecule,"Platelet aggregation, baseline (platelets; agonist ADP) [arbitrary units]","Platelet aggregation, baseline (platelets; agonist Collagen) [arbitrary units]","Platelet aggregation, baseline (platelets; agonist TRAP) [arbitrary units]",Activity (pmol ATP/min/μg) × 10^3 [2] [pmol ATP/min/μg × 10^3],further results
"COC(=O)[C@H](c1ccccc1Cl)N1CCc2sccc2C1 [Clopidogrel, clopidogrel]",58 ± 6,57 ± 9,51 ± 2,,
"CC(=O)Oc1ccccc1C(=O)O [aspirin, acetylsalicylic acid]",69 ± 5,62 ± 8,66 ± 6,,"postischemic cerebral blood flow ([1]; 24 hours after stroke induction): no improvement was seen in postischemic cerebral blood flow; intracerebral hemorrhage following stroke ([1]; measured spectrophotometrically, any dose of solCD39 tested, aspirin 5 mg/kg): increased intracerebral hemorrhage; cerebral infarct volume ([1]; preoperative administration, solCD39 4 & 8 mg/kg, aspirin 5 mg/kg): tendency to decrease cerebral infarct volume, although this effect was not statistically significant; ex vivo platelet aggregation, collagen (murine platelets; 2.5 μg/ml collagen): strongly aggregated; ex vivo platelet aggregation, ADP (murine platelets; 10 μM ADP): strongly aggregated; ex vivo platelet aggregation, arachidonate (murine platelets; 0.1 mM sodium arachidonate): only blocked platelet reactivity to arachidonate"
"Abciximab: platelet-specific chimeric antibody, glycoprotein IIb/IIIa antagonist (trade name ReoPro) (antibody, chains of the INN, looked up, V domains shown, Fab) VH: EVQLQQSGTVLARPGASVKMSCEASGYTFTNYWMHWVKQRPGQGLEWIGAIYPGNSDTSYIQKFKGKAKLTAVTSTTSVYMELSSLTNEDSAVYYCTLYDGYYVFAYWGQGTLVTVSA VL: EIVLTQSPVTLSVTPGDSVSLSCRASRDISNNLHWFQQTSHESPRLLIKYASQSMSGIPSRFSGSGSGTDFTLSINSVETEDFGMYFCQQTNSWPYTFGGGTKLEIK",0 ± 0,0 ± 0,46 ± 6,,
"pIL2LSolCD39: untagged soluble human CD39 with huIL2 leader, 12 mature IL2 residues and three amino acid linker (SEQ ID NO:7) (protein) MALWIDRMQLLSCIALSLALVTNSAPTSSSTKKTQLTSSTQNKALPENVKYGIVLDAGSSHTSLYIYKWPAEKENDTGVVHQVEECRVKGPGISKFVQKVNEIGIYLTDCMERAREVIPRSQHQETPVYLGATAGMRLLRMESEELADRVLDVVERSLSNYPFDFQGARIITGQEEGAYGWITINYLLGKFSQKTRWFSIVPYETNNQETFGALDLGGASTQVTFVPQNQTIESPDNALQFRLYGKDYNVYTHSFLCYGKDQALWQKLAKDIQVASNEILRDPCFHPGYKKVVNVSDLYKTPCTKRFEMTLPFQQFEIQGIGNYQQCHQSILELFNTSYCPYSQCAFNGIFLPPLQGDFGAFSAFYFVMKFLNLTSEKVSQEKVTEMMKKFCAQPWEEIKTSYAGVKEKYLSEYCFSGTYILSLLLQGYHFTADSWEHIHFIGKIQGSDAGWTLGYMLNLTNMIPAEQPLSTPLSHST",,,,5.67,"CPM × 10^3 (net counts), ATPase activity in CM ([2]; 10 μL 1x COS-1 supernatant): 20.1 CPM × 10^3; CPM × 10^3 (net counts), ATPase activity in CM ([2]; 20 μL 1x COS-1 supernatant): 36.0 CPM × 10^3; CPM × 10^3 (net counts), ATPase activity in CM ([2]; 30 μL 1x COS-1 supernatant): 51.0 CPM × 10^3"
pIL2LTrim1: huIL2 leader joined to solCD39 with an intervening alanine residue (SEQ ID NO:27) (protein) MALWIDRMQLLSCIALSLALVTNSATQNKALPENVKYGIVLDAGSSHTSLYIYKWPAEKENDTGVVHQVEECRVKGPGISKFVQKVNEIGIYLTDCMERAREVIPRSQHQETPVYLGATAGMRLLRMESEELADRVLDVVERSLSNYPFDFQGARIITGQEEGAYGWITINYLLGKFSQKTRWFSIVPYETNNQETFGALDLGGASTQVTFVPQNQTIESPDNALQFRLYGKDYNVYTHSFLCYGKDQALWQKLAKDIQVASNEILRDPCFHPGYKKVVNVSDLYKTPCTKRFEMTLPFQQFEIQGIGNYQQCHQSILELFNTSYCPYSQCAFNGIFLPPLQGDFGAFSAFYFVMKFLNLTSEKVSQEKVTEMMKKFCAQPWEEIKTSYAGVKEKYLSEYCFSGTYILSLLLQGYHFTADSWEHIHFIGKIQGSDAGWTLGYMLNLTNMIPAEQPLSTPLSHST,,,,8.38,
"S218A mutant: CD39 mutant, Serine218 replaced with alanine (protein, UniProt P49961 1-510, looked up, variant S218A) Ectonucleoside triphosphate …: MEDTKESNVKTFCSKNILAILGFSSIIAVIALLAVGLTQNKALPENVKYGIVLDAGSSHTSLYIYKWPAEKENDTGVVHQVEECRVKGPGISKFVQKVNEIGIYLTDCMERAREVIPRSQHQETPVYLGATAGMRLLRMESEELADRVLDVVERSLSNYPFDFQGARIITGQEEGAYGWITINYLLGKFSQKTRWFSIVPYETNNQETFGALDLGGAATQVTFVPQNQTIESPDNALQFRLYGKDYNVYTHSFLCYGKDQALWQKLAKDIQVASNEILRDPCFHPGYKKVVNVSDLYKTPCTKRFEMTLPFQQFEIQGIGNYQQCHQSILELFNTSYCPYSQCAFNGIFLPPLQGDFGAFSAFYFVMKFLNLTSEKVSQEKVTEMMKKFCAQPWEEIKTSYAGVKEKYLSEYCFSGTYILSLLLQGYHFTADSWEHIHFIGKIQGSDAGWTLGYMLNLTNMIPAEQPLSTPLSHSTYVFLMVLFSLVLFTVAIIGLLIFHKPSYFWKDMV",,,,,ADPase activity retained [3]: less than 10%
"pIL2LTrim2: huIL2 leader with an intervening Ala-Ser-Ser linker preceding solCD39 (protein, left off: small tags and cut ends) TQNKALPENVKYGIVLDAGSSHTSLYIYKWPAEKENDTGVVHQVEECRVKGPGISKFVQKVNEIGIYLTDCMERAREVIPRSQHQETPVYLGATAGMRLLRMESEELADRVLDVVERSLSNYPFDFQGARIITGQEEGAYGWITINYLLGKFSQKTRWFSIVPYETNNQETFGALDLGGASTQVTFVPQNQTIESPDNALQFRLYGKDYNVYTHSFLCYGKDQALWQKLAKDIQVASNEILRDPCFHPGYKKVVNVSDLYKTPCTKRFEMTLPFQQFEIQGIGNYQQCHQSILELFNTSYCPYSQCAFNGIFLPPLQGDFGAFSAFYFVMKFLNLTSEKVSQEKVTEMMKKFCAQPWEEIKTSYAGVKEKYLSEYCFSGTYILSLLLQGYHFTADSWEHIHFIGKIQGSDAGWTLGYMLNLTNMIPAEQPLSTPLSHST",,,,6.67,
